Test results as given in ChEMBL document CHEMBL3132769, “Fragment growing to retain or alter the selectivity of anchored kinase hinge-binding fragments” (Medchemcomm, 2014).

Experiments:
[1] = biological target: T1, Aurora kinase A (Homo sapiens) (UniProt O14965); assay: Inhibition of human full length AurA expressed in baculovirus assessed as substrate phosphorylation using fluorescence-labelled peptides as substrate at 8 uM after 90 mins by microfluidic peptide phosphorylation assay
T1 sequence (whole entry): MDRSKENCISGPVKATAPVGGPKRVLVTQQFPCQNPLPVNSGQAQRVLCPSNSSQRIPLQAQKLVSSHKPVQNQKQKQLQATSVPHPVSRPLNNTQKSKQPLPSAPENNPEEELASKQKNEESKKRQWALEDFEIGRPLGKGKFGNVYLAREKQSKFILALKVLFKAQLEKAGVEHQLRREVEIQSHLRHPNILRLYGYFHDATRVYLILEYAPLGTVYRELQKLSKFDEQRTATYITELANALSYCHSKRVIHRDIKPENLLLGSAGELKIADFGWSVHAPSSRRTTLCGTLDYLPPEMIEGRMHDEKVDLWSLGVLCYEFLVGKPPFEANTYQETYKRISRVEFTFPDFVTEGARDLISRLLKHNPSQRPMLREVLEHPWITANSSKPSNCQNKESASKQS

[2] = test system: Tyrosine-protein kinase ABL1 (Homo sapiens), P00519 [Q252H]; assay: Inhibition of human truncated ABL Q252H mutant expressed in baculovirus assessed as substrate phosphorylation using fluorescence-labelled peptides as substrate at 0.06 uM after 90 mins by microfluidic peptide phosphorylation assay
[3] = biological target: Calcium/calmodulin-dependent protein kinase type II subunit gamma (Homo sapiens) (UniProt Q13555); assay: Inhibition of human CAMK2 gamma catalytic domain expressed in baculovirus assessed as substrate phosphorylation using fluorescence-labelled peptides as substrate at 0.06 uM after 90 mins by microfluidic peptide phosphorylation assay
[4] = biological target: T2, Serine/threonine-protein kinase D1 (Homo sapiens) (UniProt Q15139); assay: Inhibition of human full length PKD1 expressed in baculovirus assessed as substrate phosphorylation using fluorescence-labelled peptides as substrate at 0.2 uM after 90 mins by microfluidic peptide phosphorylation assay
T2 sequence (whole entry): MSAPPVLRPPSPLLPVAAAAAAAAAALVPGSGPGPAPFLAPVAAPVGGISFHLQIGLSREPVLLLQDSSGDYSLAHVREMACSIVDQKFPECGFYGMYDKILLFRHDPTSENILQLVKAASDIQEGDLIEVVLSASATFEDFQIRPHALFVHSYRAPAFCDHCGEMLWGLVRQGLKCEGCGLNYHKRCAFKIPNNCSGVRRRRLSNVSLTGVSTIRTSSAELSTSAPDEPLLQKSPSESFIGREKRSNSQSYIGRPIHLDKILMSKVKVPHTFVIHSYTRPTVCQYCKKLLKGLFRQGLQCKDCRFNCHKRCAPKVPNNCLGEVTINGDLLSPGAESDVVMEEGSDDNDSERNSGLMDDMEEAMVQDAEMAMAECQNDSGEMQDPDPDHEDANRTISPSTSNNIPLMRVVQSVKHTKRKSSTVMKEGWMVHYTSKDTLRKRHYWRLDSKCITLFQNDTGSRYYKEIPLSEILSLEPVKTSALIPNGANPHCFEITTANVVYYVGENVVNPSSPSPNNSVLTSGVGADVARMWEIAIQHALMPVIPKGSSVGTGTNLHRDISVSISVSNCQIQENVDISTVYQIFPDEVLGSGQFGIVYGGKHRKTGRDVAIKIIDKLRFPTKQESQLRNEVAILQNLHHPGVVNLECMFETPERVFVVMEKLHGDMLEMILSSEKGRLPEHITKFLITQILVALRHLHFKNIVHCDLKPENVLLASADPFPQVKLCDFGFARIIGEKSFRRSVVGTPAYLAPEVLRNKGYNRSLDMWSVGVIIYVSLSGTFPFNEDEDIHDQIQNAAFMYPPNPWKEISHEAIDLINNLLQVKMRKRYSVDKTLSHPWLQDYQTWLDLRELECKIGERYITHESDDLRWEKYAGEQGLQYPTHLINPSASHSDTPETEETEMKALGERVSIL

[5] = biological target: Serine/threonine-protein kinase PAK 2 (Homo sapiens) (UniProt Q13177); assay: Inhibition of human truncated PAK2 expressed in Escherichia coli cell assessed as substrate phosphorylation using fluorescence-labelled peptides as substrate at 0.2 uM after 90 mins by microfluidic peptide phosphorylation assay
[6] = biological target: Tyrosine-protein kinase BTK (Homo sapiens) (UniProt Q06187); assay: Inhibition of human full length BTK expressed in baculovirus assessed as substrate phosphorylation using fluorescence-labelled peptides as substrate at 0.2 uM after 90 mins by microfluidic peptide phosphorylation assay
[7] = biological target: T1, Aurora kinase A (Homo sapiens); assay: Inhibition of human full length AurA expressed in baculovirus assessed as substrate phosphorylation using fluorescence-labelled peptides as substrate at […] after 90 mins by microfluidic peptide phosphorylation assay
[8] = biological target: Tyrosine-protein kinase Lck (Homo sapiens) (UniProt P06239); details: 0.1 uM
Description: Inhibition of human full length LCK expressed in baculovirus assessed as substrate phosphorylation using fluorescence-labelled peptides as substrate at 0.1 uM after 90 mins by microfluidic peptide phosphorylation assay

[9] = biological target: T3, cGMP-dependent protein kinase 1 (Homo sapiens) (UniProt Q13976); details: 0.1 uM
T3 sequence (whole entry): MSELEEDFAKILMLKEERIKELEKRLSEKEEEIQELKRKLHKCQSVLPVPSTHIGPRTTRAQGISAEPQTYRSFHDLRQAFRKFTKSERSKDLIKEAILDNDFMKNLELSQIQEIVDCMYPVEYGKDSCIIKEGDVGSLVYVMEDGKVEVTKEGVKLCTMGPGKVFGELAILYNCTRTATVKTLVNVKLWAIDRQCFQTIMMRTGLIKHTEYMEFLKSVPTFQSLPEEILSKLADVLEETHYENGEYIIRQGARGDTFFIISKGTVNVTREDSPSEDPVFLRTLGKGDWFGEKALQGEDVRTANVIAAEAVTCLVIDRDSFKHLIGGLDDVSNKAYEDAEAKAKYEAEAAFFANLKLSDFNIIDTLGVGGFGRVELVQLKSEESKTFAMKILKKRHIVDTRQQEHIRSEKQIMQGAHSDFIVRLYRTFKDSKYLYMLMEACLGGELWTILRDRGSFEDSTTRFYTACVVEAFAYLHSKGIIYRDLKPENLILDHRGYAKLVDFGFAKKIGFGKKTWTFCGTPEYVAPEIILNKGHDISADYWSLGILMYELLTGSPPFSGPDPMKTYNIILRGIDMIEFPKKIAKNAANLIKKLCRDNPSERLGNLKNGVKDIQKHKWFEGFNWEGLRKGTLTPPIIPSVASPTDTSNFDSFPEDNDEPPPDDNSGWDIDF
Description: Inhibition of human full length PKG-1beta expressed in baculovirus assessed as substrate phosphorylation using fluorescence-labelled peptides as substrate at 0.1 uM after 90 mins by microfluidic peptide phosphorylation assay

[10] = biological target: Tyrosine-protein kinase Fer (Homo sapiens) (UniProt P16591); assay: Inhibition of human FER catalytic domain expressed in baculovirus assessed as substrate phosphorylation using fluorescence-labelled peptides as substrate at 1000 uM after 90 mins by microfluidic peptide phosphorylation assay
[11] = biological target: Dual specificity tyrosine-phosphorylation-regulated kinase 1A (Rattus norvegicus) (UniProt Q63470); assay: Inhibition of rat full length DYRK1a expressed in Escherichia coli cell assessed as substrate phosphorylation using fluorescence-labelled peptides as substrate at 420 uM after 90 mins by microfluidic peptide phosphorylation assay

Tyrosine-protein kinase BTK (Homo sapiens), sequence (Q06187 whole entry): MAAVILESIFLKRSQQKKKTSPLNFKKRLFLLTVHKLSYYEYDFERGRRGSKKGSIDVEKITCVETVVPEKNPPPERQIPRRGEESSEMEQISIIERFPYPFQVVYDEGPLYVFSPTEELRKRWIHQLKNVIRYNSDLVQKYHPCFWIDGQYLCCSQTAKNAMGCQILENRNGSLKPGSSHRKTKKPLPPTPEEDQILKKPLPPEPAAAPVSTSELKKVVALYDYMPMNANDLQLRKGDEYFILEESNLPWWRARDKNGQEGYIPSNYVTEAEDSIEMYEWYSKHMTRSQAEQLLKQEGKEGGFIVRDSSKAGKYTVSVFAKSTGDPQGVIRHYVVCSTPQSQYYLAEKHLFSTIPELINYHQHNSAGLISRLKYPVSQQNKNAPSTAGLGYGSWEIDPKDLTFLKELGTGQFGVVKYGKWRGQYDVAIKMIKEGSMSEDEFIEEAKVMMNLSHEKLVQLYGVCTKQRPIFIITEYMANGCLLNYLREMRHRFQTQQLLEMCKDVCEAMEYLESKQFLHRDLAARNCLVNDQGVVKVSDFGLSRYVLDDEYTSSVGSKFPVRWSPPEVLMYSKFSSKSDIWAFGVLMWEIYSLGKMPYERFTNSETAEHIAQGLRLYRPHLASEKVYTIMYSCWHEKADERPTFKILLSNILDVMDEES
Serine/threonine-protein kinase PAK 2 (Homo sapiens), sequence (Q13177 whole entry, the tested form may be a part): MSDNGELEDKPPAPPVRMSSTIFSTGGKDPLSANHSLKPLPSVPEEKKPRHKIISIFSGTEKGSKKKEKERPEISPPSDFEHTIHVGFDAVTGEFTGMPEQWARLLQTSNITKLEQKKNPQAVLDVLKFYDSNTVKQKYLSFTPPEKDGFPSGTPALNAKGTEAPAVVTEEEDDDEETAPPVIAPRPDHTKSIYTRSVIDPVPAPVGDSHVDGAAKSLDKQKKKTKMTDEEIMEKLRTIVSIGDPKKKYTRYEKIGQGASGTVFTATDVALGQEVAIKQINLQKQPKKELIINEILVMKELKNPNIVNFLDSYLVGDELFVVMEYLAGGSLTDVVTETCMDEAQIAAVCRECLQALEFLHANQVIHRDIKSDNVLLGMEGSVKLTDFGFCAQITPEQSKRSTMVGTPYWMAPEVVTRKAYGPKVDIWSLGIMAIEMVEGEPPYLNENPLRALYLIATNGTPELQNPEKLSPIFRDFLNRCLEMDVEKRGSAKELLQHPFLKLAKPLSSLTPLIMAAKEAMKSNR
Calcium/calmodulin-dependent protein kinase type II subunit gamma (Homo sapiens), sequence (Q13555 whole entry, the tested form may be a part): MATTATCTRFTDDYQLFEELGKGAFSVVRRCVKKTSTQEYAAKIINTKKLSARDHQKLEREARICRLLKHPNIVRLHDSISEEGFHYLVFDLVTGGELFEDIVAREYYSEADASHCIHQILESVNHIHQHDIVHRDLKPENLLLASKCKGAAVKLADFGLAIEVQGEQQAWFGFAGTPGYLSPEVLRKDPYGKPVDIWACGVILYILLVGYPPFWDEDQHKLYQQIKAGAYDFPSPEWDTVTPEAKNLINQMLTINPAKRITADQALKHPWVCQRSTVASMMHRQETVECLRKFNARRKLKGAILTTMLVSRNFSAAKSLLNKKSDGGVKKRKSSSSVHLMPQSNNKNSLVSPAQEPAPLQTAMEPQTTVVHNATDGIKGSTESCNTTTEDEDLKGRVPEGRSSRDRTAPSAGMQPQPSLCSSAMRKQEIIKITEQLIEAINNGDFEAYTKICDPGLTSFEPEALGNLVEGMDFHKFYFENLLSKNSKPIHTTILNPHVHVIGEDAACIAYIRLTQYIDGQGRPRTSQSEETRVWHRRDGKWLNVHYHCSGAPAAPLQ
Tyrosine-protein kinase Fer (Homo sapiens), sequence (P16591 whole entry, looked up, the tested form may be a part): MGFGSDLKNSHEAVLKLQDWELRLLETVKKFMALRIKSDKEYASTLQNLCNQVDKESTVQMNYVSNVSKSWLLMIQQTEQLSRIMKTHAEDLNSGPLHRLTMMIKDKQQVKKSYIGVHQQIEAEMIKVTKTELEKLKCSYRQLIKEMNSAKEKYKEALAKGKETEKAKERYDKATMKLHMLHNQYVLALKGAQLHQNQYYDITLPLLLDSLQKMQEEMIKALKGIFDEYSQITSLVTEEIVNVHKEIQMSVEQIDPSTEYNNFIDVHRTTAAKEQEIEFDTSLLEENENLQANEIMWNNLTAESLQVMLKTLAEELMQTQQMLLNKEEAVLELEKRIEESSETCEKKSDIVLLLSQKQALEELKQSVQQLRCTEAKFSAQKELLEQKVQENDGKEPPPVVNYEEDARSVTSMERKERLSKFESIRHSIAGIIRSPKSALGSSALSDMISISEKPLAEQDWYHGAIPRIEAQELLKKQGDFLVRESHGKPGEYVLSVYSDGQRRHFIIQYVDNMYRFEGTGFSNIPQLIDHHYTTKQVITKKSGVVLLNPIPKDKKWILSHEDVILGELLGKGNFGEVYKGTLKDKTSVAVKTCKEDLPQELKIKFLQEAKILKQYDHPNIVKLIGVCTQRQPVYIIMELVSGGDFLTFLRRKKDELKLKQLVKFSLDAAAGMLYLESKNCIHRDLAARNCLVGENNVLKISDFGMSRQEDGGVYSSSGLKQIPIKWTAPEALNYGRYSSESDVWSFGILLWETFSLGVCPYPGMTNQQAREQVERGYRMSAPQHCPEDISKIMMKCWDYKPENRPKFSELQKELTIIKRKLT
Tyrosine-protein kinase Lck (Homo sapiens), sequence (P06239 2-509 limits assumed): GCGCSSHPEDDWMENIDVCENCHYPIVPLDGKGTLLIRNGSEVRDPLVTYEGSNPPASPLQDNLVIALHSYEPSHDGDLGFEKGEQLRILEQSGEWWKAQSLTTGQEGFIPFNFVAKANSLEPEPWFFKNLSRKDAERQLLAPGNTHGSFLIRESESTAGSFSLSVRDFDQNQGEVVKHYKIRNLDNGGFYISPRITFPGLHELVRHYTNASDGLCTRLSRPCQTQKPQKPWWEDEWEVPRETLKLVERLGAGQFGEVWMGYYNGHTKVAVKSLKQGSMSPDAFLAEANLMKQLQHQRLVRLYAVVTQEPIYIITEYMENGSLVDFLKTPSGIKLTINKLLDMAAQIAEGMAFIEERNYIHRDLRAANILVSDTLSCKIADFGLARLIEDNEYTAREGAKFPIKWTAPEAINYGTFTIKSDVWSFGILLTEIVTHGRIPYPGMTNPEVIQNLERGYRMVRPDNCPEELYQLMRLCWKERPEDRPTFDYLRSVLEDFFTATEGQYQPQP

NCC1CCN(c2ncnc3[nH]ccc23)CC1
inhibition [1]: 87.5%

NC1(Cc2ccc(Cl)cc2)CCN(c2ncnc3[nH]ccc23)CC1
inhibition [2]: 0% | inhibition [3]: 0%

Clc1ccc(C2(c3ccc(-c4ncnc5[nH]cnc45)cc3)CCNCC2)cc1
inhibition [4]: 8% | inhibition [5]: 11% | inhibition [6]: 0%

COC(=O)c1cnc(Nc2cnc(C#N)cn2)cc1NCC1CCNCC1
inhibition [7]: 6.5%

C[C@H](CN(C)C)Oc1nc(Nc2cc3cccc(Cl)c3cn2)cnc1C#N
inhibition [8]: 0% | inhibition [9]: 0%

c1cnc2[nH]ccc2c1
inhibition [10]: 18%

c1nc(N2CCOCC2)c2nc[nH]c2n1
inhibition [11]: 77%
